Test results reported in patent publication US7071340B2, “Fungicidal 1-benzoxepin derivatives” (Bayer Cropscience S.A., priority 2001, dated 2006).

Legend:
[1] = system: Septoria nodorum; assay: Biological test on isolated fungi in culture medium, 96-well microplates (Example B2); type: cell-based; conditions: Parastagonospora nodorum, 120 h; dose of 50 ppm; culturing 5 days at 20° C.; optical density at 620 nm or 405 nm; read-out: inhibition of Septoria nodorum (percentage of inhibition of the growth, Abbott's formula)
Description: (§1) The test is carried out on isolated fungi in a culture medium, in 96-well microplates. The products are dissolved in acetonitrile and are then diluted to 1/50th in methanol, so as to distribute 50 μl for a dose of 50 ppm in each well. Once the compounds are distributed, the microplates are dried under a stream of nitrogen at 40° C. The culture medium and the inoculum are subsequently added.
(§2) The growth of the fungi is measured after culturing for 5 days at 20° C. by reading the optical density at 620 nm or 405 nm, depending on the strains. The effectiveness of the product is the percentage of inhibition of the growth of the fungi calculated according to Abbott's formula, the absorbance of the growth control wells and the absorbance of the treated wells being taken as reference values.
At a dose of 50 ppm, complete or good (at least 70%) inhibition of Septoria nodorum is observed with the compounds described in the following examples: 5, 28, 29, 30, 32, 33, 34, 40, 55, 57, 63, 65, 67, 68, 70, 72, 82 and 86.

[2] = system: Botrytis cinerea; assay: Biological test on isolated fungi in culture medium, 96-well microplates (Example B1); type: cell-based; conditions: 120 h, dose of 50 ppm, culturing 5 days at 20° C., optical density at 620 nm or 405 nm, read-out: inhibition of Botrytis cinerea (percentage of inhibition of the growth, Abbott's formula)
Description: as §1, §2
At a dose of 50 ppm, complete or good (at least 70%) inhibition of Botrytis cinerea is observed with the compounds described in the following examples: 28, 32, 47, 65, 68 and 70.

[3] = system: Monilia fructigena; assay: Biological test on isolated fungi in culture medium, 96-well microplates (Example B3); type: cell-based; conditions: 120 h, dose of 50 ppm, culturing 5 days at 20° C., optical density at 620 nm or 405 nm, read-out: inhibition of Monilia fructigena (percentage of inhibition of the growth, Abbott's formula)
Description: as §1, §2
At a dose of 50 ppm, complete or good (at least 70%) inhibition of Monilia fructigena is observed with the compounds described in the following examples: 28, 32 and 70.

[4] = system: Magnaporthe orysae; assay: tissue or blood; type: cell-based; conditions: 120 h, read-out: inhibition of Magnaporthe orysae (percentage of inhibition of the growth, Abbott's formula)
[5] = system: Rhizoctonia solani; assay: Biological test on isolated fungi in culture medium, 96-well microplates (Example B6); type: cell-based; conditions: 120 h, dose of 50 ppm, culturing 5 days at 20° C., optical density at 620 nm or 405 nm, read-out: inhibition of Rhizoctonia solani (percentage of inhibition of the growth, Abbott's formula)
Description: as §1, §2
At a dose of 50 ppm, complete or good (at least 70%) inhibition of Rhizoctonia solani is observed with the compounds described in the following examples: 28, 32, 55, 68 and 70.

[6] = system: Mycosphaerella graminacola; assay: Biological test on isolated fungi in culture medium, 96-well microplates (Example B7); type: cell-based; conditions: 120 h, dose of 50 ppm, culturing 5 days at 20° C., optical density at 620 nm or 405 nm, read-out: inhibition of Mycosphaerella graminacola (percentage of inhibition of the growth, Abbott's formula)
Description: as §1, §2
At a dose of 50 ppm, complete or good (at least 70%) inhibition of Mycosphaerella graminacola is observed with the compounds described in the following examples: 28, 32, 55 and 70.

[7] = system: Venturia pirina; assay: Biological test on isolated fungi in culture medium, 96-well microplates (Example B8); type: cell-based; conditions: Venturia pyrina, 120 h; dose of 50 ppm; culturing 5 days at 20° C.; optical density at 620 nm or 405 nm; read-out: inhibition of Venturia pirina (percentage of inhibition of the growth, Abbott's formula)
Description: as §1, §2
At a dose of 50 ppm, complete or good (at least 70%) inhibition of Venturia pirina is observed with the compounds described in the following example: 28.

Compound: COC(=O)c1ccc2c(c1)C(Cc1ccccc1)=CC(=CCl)CO2 [Example 34, methyl 5-benzyl-3-(chloromethylene)-2,3-dihydro-1-benzoxepin-7-carboxylate]
- inhibition at 50 ppm [1]: ≥ 70%

Compound: C=C1C=Cc2cc(C(=O)O)ccc2OC1 [Example 40, 3-methylene-2,3-dihydro-1-benzoxepin-7-carboxylic acid]
- inhibition at 50 ppm [1]: ≥ 70%
- melting point: 188 °C

Compound: COC(=O)c1ccc2c(c1)C(Cc1ccccc1)=CC(=O)CO2 [Example 33, methyl 5-benzyl-3-oxo-2,3-dihydro-1-benzoxepin-7-carboxylate]
- inhibition at 50 ppm [1]: ≥ 70%

Compound: C=C1COc2ccc(C(C)=O)cc2C(Cc2ccccc2)(S(=O)(=O)c2ccccc2)C1 (stereo not shown) [Example 18, 1-[5-benzyl-3-methylene-5-(phenylsulfonyl)-2,3,4,5-tetrahydro-1-benzoxepin-7-yl]ethanone]
- melting point: 131 to 132 °C

Compound: COC(=O)c1ccc2c(c1)CCC(=CCl)CO2 [Example 5, methyl 3-(chloromethylene)-2,3,4,5-tetrahydro-1-benzoxepin-7-carboxylate]
- inhibition at 50 ppm [1]: ≥ 70%

Compound: COC(=O)c1ccc2c(c1)C=CC(=C(Cl)Cl)CO2 [Example 54, methyl 3-(dichloromethylene)-2,3-dihydro-1-benzoxepin-7-carboxylate]
- melting point: 119 to 121 °C

Compound: COC(=O)c1ccc2c(c1)C=CC(=O)CO2 [Example 31, methyl 3-oxo-2,3-dihydro-1-benzoxepin-7-carboxylate]
- melting point: 98 °C

Compound: CC(=O)c1ccc2c(c1)C(Cc1ccccc1)=CC(=O)CO2 [Example 29, 7-acetyl-5-benzyl-1-benzoxepin-3(2H)-one]
- inhibition at 50 ppm [1]: ≥ 70%

Compound: O=Cc1ccc2c(c1)C=CC(=CCl)CO2 [Example 72, 3-(chloromethylene)-2,3-dihydro-1-benzoxepin-7-carbaldehyde]
- inhibition at 50 ppm [1]: ≥ 70%

Compound: O=C(O)c1ccc2c(c1)C=CC(=CCl)CO2 [Example 63, 3-(chloromethylene)-2,3-dihydro-1-benzoxepin-7-carboxylic acid]
- inhibition at 50 ppm [1]: ≥ 70%
- melting point: > 260 °C

Compound: CC(=O)c1ccc2c(c1)CCC(=O)CO2 [Example 16, 7-acetyl-4,5-dihydro-1-benzoxepin-3(2H)-one]
- melting point: 80 to 82 °C

Compound: C=C1C=Cc2cc(C(=O)Nc3ccccc3)ccc2OC1 [Example 41, 3-methylene-N-phenyl-2,3-dihydro-1-benzoxepin-7-carboxamide]
- melting point: 139 °C

Compound: C=C1COc2ccc(C(C)=O)cc2C(S(=O)(=O)c2ccccc2)C1 (stereo not shown) [Example 13, 1-[3-methylene-5-(phenylsulfonyl)-2,3,4,5-tetrahydro-1-benzoxepin-7-yl]ethanone]
- melting point: 124 to 125 °C

Compound: COC(=O)c1ccc2c(c1)C=CC(=CCl)CO2 [Example 32, methyl 3-(chloromethylene)-2,3-dihydro-1-benzoxepin-7-carboxylate]
- inhibition at 50 ppm [2]: ≥ 70%
- inhibition at 50 ppm [1]: ≥ 70%
- inhibition at 50 ppm [3]: ≥ 70%
- inhibition at 50 ppm [4]: ≥ 70%
- inhibition at 50 ppm [5]: ≥ 70%
- inhibition at 50 ppm [6]: ≥ 70%
- melting point: 72 to 77 °C

Compound: C=C1COc2ccc(C(=O)OC)cc2C(Cc2ccccc2)(S(=O)(=O)c2ccccc2)C1 (stereo not shown) [Example 6, methyl 5-benzyl-3-methylene-5-(phenylsulfonyl)-2,3,4,5-tetrahydro-1-benzoxepin-7-carboxylate]
- melting point: 164 to 165 °C

Compound: CC(=O)c1ccc2c(c1)C=CC(=CCl)CO2 [Example 28, 1-[3-(chloromethylene)-2,3-dihydro-1-benzoxepin-7-yl]ethanone]
- inhibition at 50 ppm [2]: ≥ 70%
- inhibition at 50 ppm [1]: ≥ 70%
- inhibition at 50 ppm [3]: ≥ 70%
- inhibition at 50 ppm [4]: ≥ 70%
- inhibition at 50 ppm [5]: ≥ 70%
- inhibition at 50 ppm [6]: ≥ 70%
- inhibition at 50 ppm [7]: ≥ 70%

Compound: CC(=O)c1ccc2c(c1)C(Cc1ccccc1)=CC(=CCl)CO2 [Example 30, 1-[5-benzyl-3-(chloromethylene)-2,3-dihydro-1-benzoxepin-7-yl]ethanone]
- inhibition at 50 ppm [1]: ≥ 70%
